{"source": "patent US9453242B2", "about": "“Method and culture medium for preparing mammalian ovum or embryo in which zona pellucida has been thinned or eliminated, and method for fertilization using mammalian ovum prepared by same method” (NATIONAL UNIVERISTY CORPORATION KUMAMOTO UNIVERSITY, priority 2010, dated 2016)", "key": {"[1]": {"system": "mouse frozen unfertilized ovums", "experimental": "According to an ordinary method, mouse frozen unfertilized ovums were prepared using 8-week old female mice."}, "[2]": {"system": "frozen sperms of C57BL/6J mice", "assay": "In vitro fertilization after sperm pre-incubation with MBCD and/or glutathione", "assay_type": "cell-based, mouse", "settings": "for number of 2-cell stage embryo(%) / number of 2-cell stage embryo: sperm pre-incubation MBCD −", "experimental": "A sperm suspension is pre-incubated in 90 μl of a TYH culture medium at 37° C. for 30 minutes, and under a stereomicroscope, sperms showing motility are collected, avoiding nonmotile sperms, and used for fertilization. The pre-incubated sperm suspension (10 μl) is added to 90 μl of an HTF culture medium (±glutathione) into which cumulus-oocyte complexes (COCs) have been previously introduced (insemination), and these are co-incubated in an incubator for 5 to 6 hours (37° C., 5% CO2), thereby performing fertilization. Thereafter, the ovum is washed with drops of new HTF, and the ovum is observed. Those judged to parthenogenetic (only one pronucleus is recognized in ooplasm) are excluded, and on the following day (24 hours after insemination), only 2-cell stage embryos are selected, and fertilization rate is determined according to the following formula. In vitro fertilization rate (%)=(number of 2-cell stage embryo)/(number of 2-cell stage embryo+number of unfertilized ovum)×100\nThe TYH culture medium used for pre-incubation of sperms was prepared according to the above-described composition excepting that polyvinyl alcohol (1.0 mg/ml, available from SIGMA) was used instead of bovine serum albumin, and methyl-β-cyclodextrin (0.75 mM, available from SIGMA) was added. Further, the concentration of glutathione in the TYH culture medium was 1 mM, preparation was carried out in the same manner as in Example 1, and glutathione was added to the TYH culture medium directly before use. The influence on fertilization rate was compared among those containing methyl-β-cyclodextrin, those containing glutathione and those containing both compounds.\nFertilization was conducted with 90 μl of an HTF culture medium (in the case of addition of glutathione, the concentration was 1 mM) containing cumulus-oocyte complexes (COCs), in the same manner as in Example 1 (IVF/glutathione in table). As the sperm, frozen sperms of C57BL/6J mice were used, and processed according to FIG. 1. Thawed sperms were pre-incubated in a TYH culture medium (±glutathione, ±methyl-β-cyclodextrin) at 37° C. for 30 minutes, and sperms showing motility were collected and used for fertilization. The experiment was conducted five times."}, "[3]": {"system": "protein thiol in zona pellucida", "settings": "glutathione 0.25 to 2.0 mM, 37° C., 1 hour; Alexa Fluor 488 C5-maleimide", "experimental": "Mouse fresh unfertilized ovums in which cumulus cells had been removed prepared according to the above-described “1. Preparation of oocyte” were prepared, then, 100 μl of an HTF culture medium containing glutathione at various concentrations (0, 0.25, 0.5, 0.75, 1.0, 1.25, 1.5 and 2.0 mM) was dropped onto the bottom of a petri dish, and 50 embryos were inserted into this, and treated at 37° C. for 1 hour. Thereafter, a protein thiol in zona pellucida was detected by using a thiol-reactive fluorescent dye (Alexa Fluor 488 C5-maleimide)."}, "[4]": {"settings": "freeze-thawed ovums, zona pellucida eliminated with 100 mM glutathione"}}}
{"smiles": "N[C@@H](CCC(=O)N[C@@H](CS)C(=O)NCC(=O)O)C(=O)O", "note": "[glutathione, reduced glutathione]", "values": [{"measurement": "fertilization rate", "setting": "[1]; [4]", "result": 25, "unit": "%"}, {"measurement": "fertilization rate (fertilized/total)", "setting": "[1]; [4]", "result": "125/492"}, {"measurement": "condition of zona pellucida of freeze-thawed unfertilized ovum", "setting": "[1]; glutathione 100 mM, 20° C., 90 seconds", "result": "the zona pellucida of a freeze-thawed unfertilized ovum was eliminated"}, {"measurement": "effect of treating unfertilized ovums on fertilization rate", "setting": "[2]; glutathione 1 mM in IVF medium", "result": "remarkable improvement in fertilization rate"}, {"measurement": "number of 2-cell stage embryo(%)", "setting": "[2]; glutathione + (1 mM), IVF glutathione −", "result": 15, "unit": "%"}, {"measurement": "number of 2-cell stage embryo", "setting": "[2]; glutathione + (1 mM), IVF glutathione −, 344 oocytes", "result": 53}, {"measurement": "number of 2-cell stage embryo(%)", "setting": "[2]; glutathione +, IVF glutathione +", "result": 38, "unit": "%"}, {"measurement": "number of 2-cell stage embryo", "setting": "[2]; glutathione +, IVF glutathione +, 371 oocytes", "result": 140}, {"measurement": "number of 2-cell stage embryo(%)", "setting": "[2]; glutathione −, IVF glutathione + (1 mM)", "result": 36, "unit": "%"}, {"measurement": "number of 2-cell stage embryo", "setting": "[2]; glutathione −, IVF glutathione + (1 mM), 381 oocytes", "result": 136}, {"measurement": "effect of sperm pre-incubation on fertilization rate", "setting": "[2]; sperms pre-incubated with 1 mM glutathione or 0.75 mM MBCD, 37° C., 30 minutes", "result": "improvement in fertilization rate was not observed"}, {"measurement": "fluorescent intensity in zona pellucida (free thiol group)", "setting": "[3]", "result": "the fluorescent intensity in zona pellucida increased depending on the concentration of glutathione"}]}
